The results in this text go back to patent US7488740B2, “Substituted quinolin-4-ylamine analogues” (Neurogen Corporation, priority 2003, dated 2009).

The target in this assay is T1, human capsaicin receptor (Homo sapiens, UniProt Q8NER1).
T1 construct: A cDNA encoding full length human capsaicin receptor recited in U.S. Pat. No. 6,482,611 was subcloned in the plasmid pBK-CMV; expressed in transfected cells
T1 sequence (Q8NER1 whole entry): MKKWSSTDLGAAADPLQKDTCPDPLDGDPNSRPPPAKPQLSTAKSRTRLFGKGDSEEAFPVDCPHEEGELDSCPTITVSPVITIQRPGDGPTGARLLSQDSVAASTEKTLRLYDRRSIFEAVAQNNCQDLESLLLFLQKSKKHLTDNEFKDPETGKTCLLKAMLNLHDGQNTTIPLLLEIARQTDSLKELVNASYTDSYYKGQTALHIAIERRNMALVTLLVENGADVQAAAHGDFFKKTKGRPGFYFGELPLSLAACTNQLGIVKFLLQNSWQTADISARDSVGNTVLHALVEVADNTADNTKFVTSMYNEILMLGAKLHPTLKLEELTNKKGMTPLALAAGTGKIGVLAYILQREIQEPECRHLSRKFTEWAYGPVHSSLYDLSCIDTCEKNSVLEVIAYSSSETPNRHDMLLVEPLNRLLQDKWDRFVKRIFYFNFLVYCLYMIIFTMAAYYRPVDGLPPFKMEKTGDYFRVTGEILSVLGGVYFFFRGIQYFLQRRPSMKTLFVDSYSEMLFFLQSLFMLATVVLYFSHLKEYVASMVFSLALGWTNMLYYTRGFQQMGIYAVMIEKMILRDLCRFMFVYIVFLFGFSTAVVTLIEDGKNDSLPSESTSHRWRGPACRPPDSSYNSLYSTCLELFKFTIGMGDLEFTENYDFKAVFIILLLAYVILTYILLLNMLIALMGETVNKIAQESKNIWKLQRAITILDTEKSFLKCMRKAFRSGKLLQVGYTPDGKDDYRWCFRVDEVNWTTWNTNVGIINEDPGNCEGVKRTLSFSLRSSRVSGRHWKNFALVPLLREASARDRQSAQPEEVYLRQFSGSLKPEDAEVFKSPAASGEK
As to the kind of experiment: Calcium mobilization assay (Example 6). It counts as cell-based. The conditions noted are these: concentration required to provide a 50% decrease in the fluorescence response of cells exposed to one IC50 of capsaicin. In a few lines: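 HEK293 clonal lines stably expressing full-length human capsaicin receptor, Fluo-3 AM loaded in KRH buffer pH 7.4. Compounds (final 1-5 μM) preincubated 0.5-6 h at room temperature in the dark, then capsaicin added at its predetermined IC50 concentration. FLIPR calcium signal at 30-60 s; IC50 = antagonist concentration giving 50% decrease.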
Background: A change in cytosolic calcium serves as a functional read-out for many receptors and channels.
By IC50 is commonly meant the concentration that gives 50% inhibition. In the case of `CC(C)c1cc(Nc2ccc(C#N)cn2)c2ccc(-c3ncccc3C(F)(F)F)nc2n1` [Compound 104, 6-({2-isopropyl-7-[3-(trifluoromethyl)pyridin-2-yl]-1,8-naphthyridin-4-yl}amino)nicotinonitrile], the IC50 was no more than 1000 nM.

Turning to `CC(C)c1cc(Nc2ccc(Cl)cn2)c2ccc(-c3ncccc3C(F)(F)F)nc2n1` [Compound 105, N-(5-chloropyridin-2-yl)-2-isopropyl-7-[3-(trifluoromethyl)pyridin-2-yl]-1,8-naphthyridin-4-amine], the half-inhibitory concentration (IC50) was no more than 1000 nM.

As to `FC(F)(F)c1ccc(Nc2ccnc3nc(-c4ncccc4C(F)(F)F)ccc23)nc1` [Compound 106, 7-[3-(trifluoromethyl)pyridin-2-yl]-N-[5-(trifluoromethyl)pyridin-2-yl]-1,8-naphthyridin-4-amine], the IC50 was no more than 1000 nM.

For the compound `FC(F)(F)c1ccc(Nc2ccnc3cc(-c4ncccc4C(F)(F)F)cnc23)nc1` [Compound 108, 7-[3-(trifluoromethyl)pyridin-2-yl]-N-[5-(trifluoromethyl)pyridin-2-yl]-1,5-naphthyridin-4-amine], the IC50 is no more than 1000 nM.

In the case of `FC(F)(F)c1ccc(Nc2ccnc3cc(-c4ncccc4C(F)(F)F)ccc23)nc1` [Compound 109, 7-[3-(trifluoromethyl)pyridin-2-yl]-N-[5-(trifluoromethyl)pyridin-2-yl]quinolin-4-amine], the IC50 is no more than 1000 nM.

In the case of `CCc1cc(Nc2ccc(C(F)(F)F)cn2)c2ccc(-c3ncccc3C(F)(F)F)nc2n1` [Compound 110, 2-ethyl-7-[3-(trifluoromethyl)pyridin-2-yl]-N-[5-(trifluoromethyl)pyridin-2-yl]-1,8-naphthyridin-4-amine], the half-inhibitory concentration (IC50) is no more than 1000 nM.

Consider `CCc1cc(Nc2ccc(C(C)=O)cn2)c2ccc(-c3ncccc3C(F)(F)F)nc2n1` [Compound 111, 1-[6-({2-ethyl-7-[3-(trifluoromethyl)pyridin-2-yl]-1,8-naphthyridin-4-yl}amino)pyridin-3-yl]ethanone], for which the IC50 is no more than 1000 nM.

As for `CCc1cc(Nc2ccc(C(C)(C)O)cn2)c2ccc(-c3ncccc3C(F)(F)F)nc2n1` [Compound 112, 2-[6-({2-ethyl-7-[3-(trifluoromethyl)pyridin-2-yl]-1,8-naphthyridin-4-yl}amino)pyridin-3-yl]propan-2-ol], the IC50 is no more than 1000 nM.

Regarding `FC(F)(F)c1ccc(Nc2ccnc3nc(-c4ncccc4C(F)(F)F)cnc23)nc1` [Compound 113, 3-[3-(trifluoromethyl)pyridin-2-yl]-N-[5-(trifluoromethyl)pyridin-2-yl]pyrido[2,3-b]pyrazin-8-amine], the IC50 was no more than 1000 nM.

On to `CCCc1cc(Nc2ccc(C(F)(F)F)cn2)c2ccc(-c3ncccc3C(F)(F)F)nc2n1` [Compound 114, 2-propyl-7-[3-(trifluoromethyl)pyridin-2-yl]-N-[5-(trifluoromethyl)pyridin-2-yl]-1,8-naphthyridin-4-amine], for which the half-inhibitory concentration (IC50) was no more than 1000 nM.

For `CCCc1cc(Nc2ccc(C(C)=O)cn2)c2ccc(-c3ncccc3C(F)(F)F)nc2n1` [Compound 115, 1-[6-({2-propyl-7-[3-(trifluoromethyl)pyridin-2-yl]-1,8-naphthyridin-4-yl}amino)pyridin-3-yl]ethanone], the 50% inhibitory concentration (IC50) is no more than 1000 nM.

On to `CC(=O)c1ccc(Nc2cc(C(C)C)nc3nc(-c4ncccc4C(F)(F)F)ccc23)nc1` [Compound 116, 1-[6-({2-isopropyl-7-[3-(trifluoromethyl)pyridin-2-yl]-1,8-naphthyridin-4-yl}amino)pyridin-3-yl]ethanone], for which the IC50 was no more than 1000 nM.

Take `CCCc1cc(Nc2ccc(C(C)(C)O)cn2)c2ccc(-c3ncccc3C(F)(F)F)nc2n1` [Compound 117, 2-[6-({2-propyl-7-[3-(trifluoromethyl)pyridin-2-yl]-1,8-naphthyridin-4-yl}amino)pyridin-3-yl]propan-2-ol]: the IC50 is no more than 1000 nM.

`CC(C)c1cc(Nc2ccc(C(C)(C)O)cn2)c2ccc(-c3ncccc3C(F)(F)F)nc2n1` [Compound 118, 2-[6-({2-isopropyl-7-[3-(trifluoromethyl)pyridin-2-yl]-1,8-naphthyridin-4-yl}amino)pyridin-3-yl]propan-2-ol]: the IC50 is no more than 1000 nM.

For the compound `COC(C)c1cc(Nc2ccc(C(F)(F)F)cn2)c2ccc(-c3ncccc3C(F)(F)F)nc2n1` (stereo not drawn) [Compound 119, 2-(1-methoxyethyl)-7-[3-(trifluoromethyl)pyridin-2-yl]-N-[5-(trifluoromethyl)pyridin-2-yl]-1,8-naphthyridin-4-amine], the IC50 is no more than 1000 nM.

In the case of `COC(C)c1cc(Nc2ccc(C(C)=O)cn2)c2ccc(-c3ncccc3C(F)(F)F)nc2n1` (stereo not drawn) [Compound 120, 1-[6-({2-(1-methoxyethyl)-7-[3-(trifluoromethyl)pyridin-2-yl]-1,8-naphthyridin-4-yl}amino)pyridin-3-yl]ethanone], the IC50 was no more than 1000 nM.

Consider `COC(C)c1cc(Nc2ccc(C(C)(C)O)cn2)c2ccc(-c3ncccc3C(F)(F)F)nc2n1` (stereo not drawn) [Compound 121, 2-[6-({2-(1-methoxyethyl)-7-[3-(trifluoromethyl)pyridin-2-yl]-1,8-naphthyridin-4-yl}amino)pyridin-3-yl]propan-2-ol], for which the IC50 is no more than 1000 nM.

Take `CCCc1cc(Nc2ccc(Cl)cn2)c2ccc(-c3ncccc3C(F)(F)F)nc2n1` [Compound 122, N-(5-chloropyridin-2-yl)-2-propyl-7-[3-(trifluoromethyl)pyridin-2-yl]-1,8-naphthyridin-4-amine]: the IC50 is no more than 1000 nM.

`CCCc1cc(Nc2ccc(S(C)(=O)=O)cn2)c2ccc(-c3ncccc3C(F)(F)F)nc2n1` [Compound 123, N-[5-(methylsulfonyl)pyridin-2-yl]-2-propyl-7-[3-(trifluoromethyl)pyridin-2-yl]-1,8-naphthyridin-4-amine]: the IC50 is no more than 1000 nM.

For `CN1CCCC(c2cc(Nc3ccc(C(F)(F)F)cn3)c3ccc(-c4ncccc4C(F)(F)F)nc3n2)C1` (stereo not drawn) [Compound 124, 2-(1-methylpiperidin-3-yl)-7-[3-(trifluoromethyl)pyridin-2-yl]-N-[5-(trifluoromethyl)pyridin-2-yl]-1,8-naphthyridin-4-amine], the IC50 was no more than 1000 nM.

In the case of `N#Cc1cc(Nc2ccc(C(F)(F)F)cn2)c2ccc(-c3ncccc3C(F)(F)F)nc2n1` [Compound 125, 7-[3-(trifluoromethyl)pyridin-2-yl]-4-{[5-(trifluoromethyl)pyridin-2-yl]amino}-1,8-naphthyridine-2-carbonitrile], the IC50 was no more than 1000 nM.

With `NC(=O)c1cc(Nc2ccc(C(F)(F)F)cn2)c2ccc(-c3ncccc3C(F)(F)F)nc2n1` [Compound 126, 7-[3-(trifluoromethyl)pyridin-2-yl]-4-{[5-(trifluoromethyl)pyridin-2-yl]amino}-1,8-naphthyridine-2-carboxamide], the IC50 is no more than 1000 nM.

For the compound `CCCc1cc(Nc2ccc(CC)cn2)c2ccc(-c3ncccc3C(F)(F)F)nc2n1` [Compound 128, N-(5-ethylpyridin-2-yl)-2-propyl-7-[3-(trifluoromethyl)pyridin-2-yl]-1,8-naphthyridin-4-amine], the IC50 is no more than 1000 nM.

Regarding `FC(F)(F)c1ccc(Nc2cc(N3CCOCC3)nc3nc(-c4ncccc4C(F)(F)F)ccc23)nc1` [Compound 129, 2-morpholin-4-yl-7-[3-(trifluoromethyl)pyridin-2-yl]-N-[5-(trifluoromethyl)pyridin-2-yl]-1,8-naphthyridin-4-amine], the IC50 is no more than 1000 nM.

Turning to `CC(C)CNc1cc(Nc2ccc(C(F)(F)F)cn2)c2ccc(-c3ncccc3C(F)(F)F)nc2n1` [Compound 130, N~2~-isobutyl-7-[3-(trifluoromethyl)pyridin-2-yl]-N~4~-[5-(trifluoromethyl)pyridin-2-yl]-1,8-naphthyridine-2,4-diamine], the IC50 was no more than 1000 nM.

As for `FC(F)(F)c1cnc(Nc2ccnc3nc(-c4ncccc4C(F)(F)F)ccc23)cn1` [Compound 131, N-[5-(trifluoromethyl)pyrazin-2-yl]-7-[3-(trifluoromethyl)pyridin-2-yl]-1,8-naphthyridin-4-amine], the IC50 was no more than 1000 nM.

For the compound `FC(F)(F)c1cnc(Nc2ccnc3nc(-c4ncccc4C(F)(F)F)ccc23)nc1` [Compound 132, 7-[3-(trifluoromethyl)pyridin-2-yl]-N-[5-(trifluoromethyl)pyrimidin-2-yl]-1,8-naphthyridin-4-amine], the IC50 is no more than 1000 nM.

In the case of `CC(=O)c1cc(Nc2ccc(C(F)(F)F)cn2)c2ccc(-c3ncccc3C(F)(F)F)nc2n1` [Compound 133, 1-(7-[3-(trifluoromethyl)pyridin-2-yl]-4-{[5-(trifluoromethyl)pyridin-2-yl]amino}-1,8-naphthyridin-2-yl)ethanone], the IC50 is no more than 1000 nM.

`Cc1cccnc1-c1ccc2c(Nc3ccc(C(F)(F)F)cn3)ccnc2n1` [Compound 135, 7-(3-methylpyridin-2-yl)-N-[5-(trifluoromethyl)pyridin-2-yl]-1,8-naphthyridin-4-amine]: the IC50 was no more than 1000 nM.

For `FC(F)(F)c1ccc(Nc2ccnc3nc(-c4ncccc4Cl)ccc23)nc1` [Compound 136, 7-(3-chloropyridin-2-yl)-N-[5-(trifluoromethyl)pyridin-2-yl]-1,8-naphthyridin-4-amine], the 50% inhibitory concentration (IC50) was no more than 1000 nM.

As for `Cc1cccnc1-c1ccc2c(Nc3ncc(C(F)(F)F)cn3)ccnc2n1` [Compound 137, 7-(3-methylpyridin-2-yl)-N-[5-(trifluoromethyl)pyrimidin-2-yl]-1,8-naphthyridin-4-amine], the IC50 is no more than 1000 nM.

On to `FC(F)(F)c1cnc(Nc2ccnc3nc(-c4ncccc4Cl)ccc23)cn1` [Compound 138, 7-(3-chloropyridin-2-yl)-N-[5-(trifluoromethyl)pyrazin-2-yl]-1,8-naphthyridin-4-amine], for which the IC50 was no more than 1000 nM.

As for `FC(F)(F)c1cccnc1-c1ccc2c(Nc3ccc(Cl)cn3)ccnc2n1` [Compound 139, N-(5-chloropyridin-2-yl)-7-[3-(trifluoromethyl)pyridin-2-yl]-1,8-naphthyridin-4-amine], the IC50 was no more than 1000 nM.
